Results as given in patent publication US5288757A, “Aminosulfonyl urea ACAT inhibitors and a method of lowering blood cholesterol levels therewith” (priority 1993, dated 1994).
Where two headings read alike, the source gives them in different places.

How the values were obtained:
[1] = target: T1, acyl-CoA: cholesterol acyltransferase (ACAT) (Oryctolagus cuniculus, UniProt G1SFD9); test: in vitro inhibition of ACAT (IAI), radiolabeled cholesterol oleate formation in rabbit intestinal microsomes; assay type: biochemical
T1 construct: in a tissue preparation containing rabbit intestinal microsomes; from tissue; host or cells: rabbit intestinal microsomes
T1 sequence (G1SFD9 1-524): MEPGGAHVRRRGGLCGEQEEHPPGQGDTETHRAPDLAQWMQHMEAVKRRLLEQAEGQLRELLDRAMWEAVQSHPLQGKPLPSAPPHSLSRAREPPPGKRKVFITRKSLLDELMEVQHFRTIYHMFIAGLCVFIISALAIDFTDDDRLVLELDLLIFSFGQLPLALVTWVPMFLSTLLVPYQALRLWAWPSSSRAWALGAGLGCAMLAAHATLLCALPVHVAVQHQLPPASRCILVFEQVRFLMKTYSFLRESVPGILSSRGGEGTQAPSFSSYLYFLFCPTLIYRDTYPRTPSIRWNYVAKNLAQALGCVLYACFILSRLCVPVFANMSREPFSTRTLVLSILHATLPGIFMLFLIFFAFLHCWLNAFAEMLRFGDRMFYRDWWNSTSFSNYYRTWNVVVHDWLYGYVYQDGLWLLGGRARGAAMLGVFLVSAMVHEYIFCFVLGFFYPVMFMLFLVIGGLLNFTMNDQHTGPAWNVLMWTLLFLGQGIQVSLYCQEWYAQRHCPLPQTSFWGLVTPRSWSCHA
Experimental: The ability of representative compounds of the present invention to inhibit ACAT was measured using an in vitro test more fully described in F. J. Field and R. G. Salone, Biochemica et Biophysica 712:557-570 (1982). The test assesses the ability of a test compound to inhibit the acylation of cholesterol by oleic acid by measuring the amount of radiolabeled cholesterol oleate formed from radiolabeled oleic acid in a tissue preparation containing rabbit intestinal microsomes.

Plasma TC = test: in vivo screen designated APCC, plasma total cholesterol in rats on high fat, high cholesterol diet; set-up: species or system male Sprague-Dawley rats; details: dosed at 30 mg/kg; rat; high fat, high cholesterol diet with 0.5% cholic acid; read-out: % Change in Plasma TC Values (mg/dl)
Text: In one in vivo screen designated APCC, male Sprague-Dawley rats (200 to 225 g) were randomly divided into treatment groups and dosed at 4 PM with either vehicle (CMC/Tween) or suspensions of compounds in vehicle. The normal chow diet was then replaced with a high fat, high cholesterol diet with 0.5% cholic acid. The rats consumed this diet ad libitum during the night and were sacrificed at 8 AM to obtain blood samples for cholesterol analysis using standard procedures. Statistical differences between mean cholesterol values for the same vehicle were determined using analysis of variance followed by Fisher's least significant test. Compounds were dosed at 30 mg/kg unless otherwise noted.

SMILES	IC50 [1]	change in vivo at 30 mg/kg (Plasma TC)	IC50 ([1]; rabbit intestinal microsomes, read-out: IAI IC50)
CC(C)c1cccc(C(C)C)c1NC(=O)NS(=O)(=O)N(C(C)C)C(C)C [Example 28, N-[2,6-bis(1-methylethyl)phenyl]-N'-[(diisopropylamino)sulfonyl]urea]	1.1 µM	-60%	–
CCCCN(CCCC)S(=O)(=O)N(C)C(=O)Nc1c(C(C)C)cccc1C(C)C [Example 44]	–	-8%	> 5 µM
